Reference: patent US20240368191A1, “HETEROCYCLIC COMPOUNDS AND USES THEREOF” (Kumquat Biosciences Inc., priority 2021, published 2024)

Conditions: microsomes

Question: For N#Cc1cnn(C(=O)N2C3CCC2CN(c2nc(OC[C@@]45CCCN4C[C@H](F)C5)nc4c(F)c(-c5ccc(F)c6sc(N)c(C#N)c56)c(Cl)cc24)C3)c1 [Compound A278, 1-(3-(7-(2-amino-3-cyano-7-fluorobenzo[b]thiophen-4-yl)-6-chloro-8-fluoro-2-(((2R,7aS)-2-fluorotetrahydro-1H-pyrrolizin-7a(5H)-yl)methoxy)quinazolin-4-yl)-3,8-diazabicyclo[3.2.1]-octane-8-carbonyl)-1H-pyr-azole-4-carbonitrile], which T½ microsomal stability is on record?
Answer: The T½ microsomal stability was “greater than 10 mins”.
